{
  "source": "PubChem BioAssay AID1117296",
  "about": "(The Scripps Research Institute Molecular Screening Center, 2014)",
  "note": "Activity calls are given as the source filed them.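 The calls were made as follows: active = IC50 at or below 10 µM; inactive = IC50 above 10 µM.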",
  "data": [
    {"tested_on": "HuH7 TTR-promoter Gaussia luciferase reporter, luminescence", "assay": "TTR transcription inhibitors in hepatoma cells, dose response, counter-screen for TTR transcription activator project, cell-based, luminescence, HuH7 hepatoma, IC50 (AID 1117296)", "values": [
      {"smiles": "CCOC(=O)Nc1nc(-c2ccccc2)c(C(=O)c2ccc(Cl)cc2)s1", "IC50": "> 55.2 µM (inactive)"},
      {"smiles": "COc1cccc(-c2csc(NC(=O)C3CC3)n2)c1", "IC50": "103 µM (inactive)"},
      {"smiles": "Cn1nccc1C(=O)N1CCc2ccccc21", "IC50": "> 167 µM (inactive)"},
      {"smiles": "CCCCn1c(O)c(C(=O)/C=C/c2ccc3c(c2)OCO3)c(=O)[nH]c1=O", "IC50": "90.9 µM (inactive)"},
      {"smiles": "COc1ccc(CCNc2c3ccccc3nc3ccccc23)cc1OC", "IC50": "54.4 µM (inactive)"},
      {"smiles": "CCCNC(=O)c1ccc(N2CCC3(CC2)CC(c2ccccc2)=NO3)c(NC(=O)c2ccco2)c1", "IC50": "> 167 µM (inactive)"},
      {"smiles": "CC(Oc1ccccc1)C(=O)N1CCN=C1SCc1ccccc1", "note": "(stereo not given)", "IC50": "70.7 µM (inactive)"},
      {"smiles": "COc1ccc(-c2cc(C)no2)cc1S(=O)(=O)NCc1cccc(C)c1", "IC50": "> 167 µM (inactive)"},
      {"smiles": "CCn1ncc(/C=N\\NC(=O)c2csc3ccccc23)c1C", "IC50": "> 167 µM (inactive)"},
      {"smiles": "Cc1c(NS(=O)(=O)c2ccc(NC3CCCC3)c([N+](=O)[O-])c2)c(=O)n(-c2ccccc2)n1C", "IC50": "> 167 µM (inactive)"},
      {"smiles": "O=[N+]([O-])c1cccc(-c2noc(-c3ccco3)n2)c1", "IC50": "> 167 µM (inactive)"},
      {"smiles": "COc1ccc2cc3c(N)nn(C(=O)c4ccccc4[N+](=O)[O-])c3nc2c1", "IC50": "34.8 µM (inactive)"},
      {"smiles": "CC(C)CNC(=O)CSc1nnc2ccccn12", "IC50": "> 167 µM (inactive)"},
      {"smiles": "Cc1cc(C(=O)N2CCc3ccccc32)n(-c2ccccc2)n1", "IC50": "175 µM (inactive)"},
      {"smiles": "CC1CN(Cc2ccccc2)c2nc3c(c(=O)n(CC(N)=O)c(=O)n3C)n2C1", "note": "(stereo not given)", "IC50": "> 167 µM (inactive)"},
      {"smiles": "Cc1nn(C)c(C(=O)N2CCc3ccccc32)c1Br", "IC50": "> 167 µM (inactive)"},
      {"smiles": "OCCNc1c2ccccc2nc2ccccc12", "IC50": "54.9 µM (inactive)"},
      {"smiles": "CCCC(=O)NC1=C(N2CC2)C(=O)C(NC(=O)CCC)=C(N2CC2)C1=O", "IC50": "23.5 µM (inactive)"},
      {"smiles": "Cc1cccc(N(C)c2ncnc3onc(-c4ccc(F)cc4)c23)c1C", "IC50": "> 55.2 µM (inactive)"},
      {"smiles": "CC(=O)c1cc(C(C)=O)c(C)nc1C", "IC50": "> 167 µM (inactive)"},
      {"smiles": "COc1ccc2[nH]c3c(Cl)ncnc3c2c1", "IC50": "> 167 µM (inactive)"},
      {"smiles": "Cc1ccc(/C=N/NC(=O)c2csc(C)c2)o1", "IC50": "116 µM (inactive)"},
      {"smiles": "Cc1c(C(=O)N2CCc3ccccc32)cnn1C", "IC50": "> 167 µM (inactive)"},
      {"smiles": "COc1ccc(-c2noc(-c3cccs3)n2)cc1OC", "IC50": "> 167 µM (inactive)"},
      {"smiles": "CN(C)CCNc1ccc(CO)c2oc3ccc(O)cc3c(=O)c12", "IC50": "> 55.2 µM (inactive)"},
      {"smiles": "O=c1cc(O)c2sc(Nc3ccc(Cl)c(F)c3)nc2[nH]1", "IC50": "> 167 µM (inactive)"},
      {"smiles": "Cc1c(Br)c(C(=O)N2CCc3ccccc32)nn1C", "IC50": "> 167 µM (inactive)"},
      {"smiles": "O=C(CCl)c1cc2c3c(c1)CC(=O)N3CCC2", "IC50": "19.8 µM (inactive)"},
      {"smiles": "CN(C)CC(CCC(CN(C)C)C(O)(c1ccccc1)c1ccccc1)C(O)(c1ccccc1)c1ccccc1", "note": "(stereo not given)", "IC50": "17.2 µM (inactive)"},
      {"smiles": "Cc1cc(C)n(CC(=O)n2c(C)c(C)c3ccccc32)n1", "IC50": "> 167 µM (inactive)"},
      {"smiles": "Cc1ccc(C2CC(c3ccccc3)=NN2C(=S)Nc2ccccc2)o1", "note": "(stereo not given)", "IC50": "> 167 µM (inactive)"},
      {"smiles": "Cc1cccc(NC(c2ccc(O)cc2)c2ccc3ccc(C)nc3c2O)n1", "note": "(stereo not given)", "IC50": "61.8 µM (inactive)"},
      {"smiles": "CN(Cc1ccccc1)C(=O)c1[nH]cnc1C(=O)NCC(=O)OC(C)(C)C", "IC50": "> 167 µM (inactive)"},
      {"smiles": "N=c1ccn(CC(=O)NC(N)=O)c2ccccc12", "IC50": "> 167 µM (inactive)"},
      {"smiles": "Cn1cc(C2CC(c3ccccc3)=NN2C(=O)c2ccccc2)c2ccccc21", "note": "(stereo not given)", "IC50": "> 167 µM (inactive)"},
      {"smiles": "Cc1ccc(Nc2c3c(nc4ncnn24)CCC3)cc1", "IC50": "> 167 µM (inactive)"},
      {"smiles": "O=C/C(=C\\Nc1ccccn1)c1nc2ccccc2o1", "IC50": "> 18.4 µM (inactive)"},
      {"smiles": "Cn1ncc(Cl)c1C(=O)N1CCc2ccccc21", "IC50": "> 167 µM (inactive)"},
      {"smiles": "Cc1ccccc1Cn1cc(COC(=O)N(C)Cc2ccccc2)nn1", "IC50": "115 µM (inactive)"},
      {"smiles": "C/C(=N\\Nc1ncc(Br)cn1)c1cccc([N+](=O)[O-])c1", "IC50": "> 167 µM (inactive)"},
      {"smiles": "CCOc1ccc(N=C2NC(=O)S/C2=C\\c2ccc(O)cc2)cc1", "IC50": "> 167 µM (inactive)"},
      {"smiles": "c1ccc(Sc2ncnc3c2oc2ccccc23)nc1", "IC50": "142 µM (inactive)"},
      {"smiles": "C=CCn1c(=O)c2c(nc3n2CC(C)CN3Cc2ccccc2)n(C)c1=O", "note": "(stereo not given)", "IC50": "82.5 µM (inactive)"},
      {"smiles": "Cc1ccc([C@H]2C[C@@H](O)[C@H](n3cc(-c4ccc(F)cc4)nn3)CN2C(=O)c2cccs2)cc1", "IC50": "63 µM (inactive)"},
      {"smiles": "COc1ccc(C(=O)NC2CCCc3c2cnn3-c2cc(F)cc(F)c2)c(OC)c1OC", "note": "(stereo not given)", "IC50": "61.9 µM (inactive)"},
      {"smiles": "Cn1c(O)c(/C=C2\\N=c3ccccc3=C2CCNC(=S)NC2CC2)c(=O)n(C)c1=O", "IC50": "45 µM (inactive)"},
      {"smiles": "Cc1cnc(NC(=O)CCCc2nc3ccccc3s2)s1", "IC50": "> 167 µM (inactive)"},
      {"smiles": "Cc1ccc(CNC(=O)Cc2ccc(-c3ccccc3)cc2)cc1", "IC50": "> 167 µM (inactive)"},
      {"smiles": "Cc1nnc(SCc2ccc(Cl)cc2)nc1/C=C/N(C)C", "IC50": "81.3 µM (inactive)"},
      {"smiles": "COc1ccc([C@@H]2CC=C(C(=O)O)[C@H](c3ccccc3F)N2S(=O)(=O)c2ccccc2C)cc1", "IC50": "66.3 µM (inactive)"},
      {"smiles": "c1cc2c(cc1C1=Nn3c(nnc3C3CCCCC3)SC1)OCO2", "IC50": "47.1 µM (inactive)"},
      {"smiles": "Cn1cc(Br)c(C(=O)N2CCc3ccccc32)n1", "IC50": "> 167 µM (inactive)"},
      {"smiles": "[O-]/C(=C(\\C(=S)Nc1ccc(SC(F)F)cc1)[n+]1ccccc1)c1cc(Cl)ccc1Cl", "IC50": "> 167 µM (inactive)"},
      {"smiles": "Cn1ncc(Br)c1C(=O)N1CCc2ccccc21", "IC50": "> 167 µM (inactive)"},
      {"smiles": "O=C(O)c1ccc(CSc2nnc(Cc3ccccc3)o2)cc1", "IC50": "27.3 µM (inactive)"}
    ]}
  ]
}
